This is an account of results in patent publication US8747900B2, “Dosage form with improved release of cefuroximaxetil” (Gruenenthal GmbH, priority 2005, dated 2014).

A short description of data set [1]: Solubility / saturation solubility of cefuroximaxetil. The format is physicochemical.
The conditions of data set [2]: cited from earlier work; for Solubility of the active ingredient (dissolved): after 45 minutes, standard method USP 23 page 316.
A short description of data set [3]: Relative stability of binary mixtures of the modifications in water. In kind it is physicochemical.
A short description of data set [4]: Storage stability of the crystalline modification at elevated temperature. In kind it is physicochemical. Here is the method: The crystalline modification of cefuroximaxetil according to the invention is stable in storage. […] Even after storage for 2 months at 40° C. and 75% rel. atmospheric humidity, the content of the comparatively easily formed Δ^3-degradation product is still below 1.0 wt. %, which is indicative of excellent stability of the modification according to the invention.

SMILES strings stand for the structures.

For the compound `CO/N=C(\C(=O)N[C@@H]1C(=O)N2C(C(=O)OC(C)OC(C)=O)=C(COC(N)=O)CS[C@H]12)c1ccco1` (stereo partly drawn) [Cefuroximaxetil, 1-acetoxyethyl ester of cefuroxime, i.e. of (6R,7R)-3-carbamoyloxymethyl-7-[(Z)-2-(fur-2-yl)-2-methoxyiminoacetamido]ceph-3-em-4-carboxylic acid], in data set [1] (in the dissolution medium (1000 ml), artificial gastric juice + Tween 80), the Saturation solubility is 600 mg. Moreover, the Solubility entry in data set [1] (largely pH-independent) is given as “approx. 0.5 mg/ml”. As for `CO/N=C(\C(=O)N[C@@H]1C(=O)N2C(C(=O)OC(C)OC(C)=O)=C(COC(N)=O)CS[C@H]12)c1ccco1` (stereo partly drawn) [α-modification, cefuroximaxetil], the “Solubility when tested according to USP 23” value in data set [2] (minimum: 60% in 15 minutes, 75% within 45 minutes) is on record as “does not achieve the specified minimum solubility”. Regarding `CO/N=C(\C(=O)N[C@@H]1C(=O)N2C(C(=O)OC(C)OC(C)=O)=C(COC(N)=O)CS[C@H]12)c1ccco1` (stereo partly drawn) [β-modification, cefuroximaxetil], the “Solubility of the active ingredient (dissolved)” value in data set [2] is given as “over 40%”. `CO/N=C(\C(=O)N[C@@H]1C(=O)N2C(C(=O)OC(C)OC(C)=O)=C(COC(N)=O)CS[C@H]12)c1ccco1` (some centres unmarked) [γ-modification, cefuroximaxetil]: the “Solubility of the active ingredient (dissolved)” value in data set [2] is 73.0%. Consider `CO/N=C(\C(=O)N[C@@H]1C(=O)N2C(C(=O)OC(C)OC(C)=O)=C(COC(N)=O)CS[C@H]12)c1ccco1` (some centres unmarked) [δ-modification, cefuroximaxetil], for which the “Stability relative to the α-, β- and γ-modification” value in data set [3] is “stabler”. Moreover, the “Change to the composition, chemically (decomposition products) or physically (solubility, X-ray diffractogram)” value in data set [4] (after storage at elevated temperature) is “no significant change”. Further, the “Content of Δ^3-degradation product” value in data set [4] (after storage for 2 months at 40° C. and 75% rel. atmospheric humidity) was “below 1.0 wt. %”.
